In the NIST ThermoML archive (doi:10.1016/j.jct.2013.04.010):
Values joined by “and” are separate entries in the source; they are usually repeats but may differ in a detail not shown here. Equal entries are not always repeated.

Conditions: Liquid, Other PVT measurement

CCCCC(CC)COC(=O)c1ccccc1C(=O)OCC(CC)CCCC (stereo not given) [bis(2-ethylhexyl) 1,2-benzenedicarboxylate]
Conditions | mass density
373.29 K, 3800 kPa | 921 kg/m3
373.29 K, 7600 kPa | 924 kg/m3
373.29 K, 12200 kPa | 928 kg/m3
373.29 K, 15900 kPa | 931 kg/m3
373.29 K, 18100 kPa | 933 kg/m3
373.29 K, 22300 kPa | 936 kg/m3
373.29 K, 28300 kPa | 940 kg/m3
373.29 K, 34800 kPa | 945 kg/m3
373.29 K, 42200 kPa | 950 kg/m3
373.29 K, 48900 kPa | 954 kg/m3
373.29 K, 56100 kPa | 959 kg/m3
373.29 K, 69500 kPa | 967 kg/m3
373.29 K, 83700 kPa | 974 kg/m3
373.29 K, 104200 kPa | 984 kg/m3
373.29 K, 125400 kPa | 994 kg/m3
373.29 K, 138900 kPa | 1001 kg/m3
373.29 K, 152900 kPa | 1007 kg/m3
373.29 K, 174400 kPa | 1015 kg/m3
373.29 K, 208300 kPa | 1029 kg/m3
373.29 K, 240000 kPa | 1041 kg/m3
373.29 K, 262100 kPa | 1046 kg/m3
423.53 K, 4200 kPa | 878 kg/m3
423.53 K, 7900 kPa | 885 kg/m3
423.53 K, 11100 kPa | 890 kg/m3
423.53 K, 14500 kPa | 895 kg/m3
423.53 K, 18000 kPa | 898 kg/m3
423.53 K, 21200 kPa | 901 kg/m3
423.53 K, 27800 kPa | 908 kg/m3
423.53 K, 35200 kPa | 914 kg/m3
423.53 K, 42100 kPa | 918 kg/m3
423.53 K, 49200 kPa | 924 kg/m3
423.53 K, 55700 kPa | 930 kg/m3
423.53 K, 70700 kPa | 939 kg/m3
423.53 K, 83700 kPa | 948 kg/m3
423.53 K, 104200 kPa | 960 kg/m3
423.53 K, 125400 kPa | 970 kg/m3
423.53 K, 139900 kPa | 977 kg/m3
423.53 K, 153700 kPa | 983 kg/m3
423.53 K, 173400 kPa | 992 kg/m3
423.53 K, 207100 kPa | 1006 kg/m3
423.53 K, 239400 kPa | 1018 kg/m3
423.53 K, 263800 kPa | 1028 kg/m3
476.2 K, 5500 kPa | 847 kg/m3
476.2 K, 9400 kPa | 853 kg/m3
476.2 K, 9500 kPa | 853 kg/m3
476.2 K, 15200 kPa | 861 kg/m3
476.2 K, 15700 kPa | 861 kg/m3
476.2 K, 26800 kPa | 874 kg/m3
476.2 K, 27300 kPa | 874 kg/m3
476.2 K, 27500 kPa | 874 kg/m3
476.2 K, 46700 kPa | 894 kg/m3
476.2 K, 46900 kPa | 894 kg/m3
476.2 K, 59800 kPa | 905 kg/m3
476.2 K, 70700 kPa | 914 kg/m3
476.2 K, 71500 kPa | 913 kg/m3
476.2 K, 95700 kPa | 931 kg/m3
476.2 K, 96400 kPa | 931 kg/m3
476.2 K, 114200 kPa | 942 kg/m3
476.2 K, 114800 kPa | 942 kg/m3
476.2 K, 139800 kPa | 959 kg/m3
476.2 K, 140400 kPa | 958 kg/m3
476.2 K, 176200 kPa | 975 kg/m3
476.2 K, 206900 kPa | 990 kg/m3
476.2 K, 240200 kPa | 1002 kg/m3
476.2 K, 269000 kPa | 1013 kg/m3
491.86 K, 3900 kPa | 830 kg/m3 and 831 kg/m3
491.86 K, 4100 kPa | 830 kg/m3
491.86 K, 9900 kPa | 840 kg/m3
491.86 K, 10500 kPa | 839 kg/m3
491.86 K, 22800 kPa | 856 kg/m3
491.86 K, 23300 kPa | 856 kg/m3
491.86 K, 37200 kPa | 870 kg/m3
491.86 K, 37500 kPa | 870 kg/m3
491.86 K, 50700 kPa | 886 kg/m3
491.86 K, 51100 kPa | 885 kg/m3
491.86 K, 71500 kPa | 902 kg/m3
491.86 K, 71900 kPa | 902 kg/m3
491.86 K, 94800 kPa | 918 kg/m3
491.86 K, 95000 kPa | 918 kg/m3
491.86 K, 121700 kPa | 934 kg/m3
491.86 K, 121800 kPa | 934 kg/m3
491.86 K, 145400 kPa | 948 kg/m3
491.86 K, 145600 kPa | 948 kg/m3
491.86 K, 177200 kPa | 964 kg/m3
491.86 K, 177400 kPa | 964 kg/m3
491.86 K, 204300 kPa | 977 kg/m3
491.86 K, 206000 kPa | 978 kg/m3
491.86 K, 229400 kPa | 989 kg/m3
491.86 K, 230800 kPa | 988 kg/m3
491.86 K, 253700 kPa | 998 kg/m3
491.86 K, 258100 kPa | 1000 kg/m3
523.6 K, 5700 kPa | 811 kg/m3
523.6 K, 9200 kPa | 817 kg/m3
523.6 K, 16100 kPa | 827 kg/m3
523.6 K, 21600 kPa | 835 kg/m3
523.6 K, 27300 kPa | 842 kg/m3
523.6 K, 27500 kPa | 842 kg/m3
523.6 K, 35500 kPa | 851 kg/m3
523.6 K, 35700 kPa | 851 kg/m3
523.6 K, 44200 kPa | 860 kg/m3
523.6 K, 44300 kPa | 860 kg/m3
523.6 K, 44400 kPa | 860 kg/m3
523.6 K, 44600 kPa | 860 kg/m3
523.6 K, 55800 kPa | 871 kg/m3
523.6 K, 56300 kPa | 871 kg/m3
523.6 K, 68500 kPa | 882 kg/m3
523.6 K, 68900 kPa | 882 kg/m3
523.6 K, 82200 kPa | 893 kg/m3
523.6 K, 82500 kPa | 892 kg/m3
523.6 K, 97000 kPa | 903 kg/m3
523.6 K, 97300 kPa | 903 kg/m3
523.6 K, 117000 kPa | 916 kg/m3
523.6 K, 117400 kPa | 916 kg/m3
523.6 K, 117700 kPa | 916 kg/m3
523.6 K, 155700 kPa | 939 kg/m3
523.6 K, 156100 kPa | 939 kg/m3
523.6 K, 181200 kPa | 952 kg/m3
523.6 K, 181500 kPa | 952 kg/m3
523.6 K, 209500 kPa | 964 kg/m3
523.6 K, 209900 kPa | 964 kg/m3
523.6 K, 233900 kPa | 974 kg/m3
523.6 K, 234000 kPa | 974 kg/m3
523.6 K, 253400 kPa | 983 kg/m3
523.6 K, 253600 kPa | 983 kg/m3
523.6 K, 263500 kPa | 987 kg/m3
